Test results taken from patent US20160242416A1, “FUNGICIDAL ISOXAZOLINE CARBINOLS” (E I DU PONT DE NEMOURS AND COMPANY, priority 2015, published 2016).

What was measured:
Botrytis cinerea = experiment: Test B: gray mold, preventive spray on tomato seedlings; settings: 100 = 100% disease control; for Test B disease control rating: 10 ppm test solution, 0 = no control relative to controls; for Test B rating (% disease control): gray mold on tomato, 0 = no control
[1] = tested on: Puccinia recondita f sp. tritici; experiment: Test F: wheat leaf rust, preventive spray on wheat seedlings; settings: 100 = 100% disease control; for Test F disease control rating: 10 ppm test solution, 0 = no control relative to controls; for Test F rating (% disease control): wheat leaf rust, 0 = no control
Source text: General protocol for preparing test solutions for Tests A-G: the test compounds were first dissolved in acetone in an amount equal to 3% of the final volume and then suspended at the desired concentration (in ppm) in acetone and purified water (50/50 mix by volume) containing 250 ppm of the surfactant PEG400 (polyhydric alcohol esters). The resulting test suspensions were then used in Tests A-G. Compounds were sprayed at a concentration of 50 ppm (*) or 10 ppm to the point of run-off on the test plants, the equivalent of a rate of 200 g/ha or 40 g/ha, respectively.
The test solution was sprayed to the point of run-off on wheat seedlings. The following day the seedlings were inoculated with a spore suspension of Puccinia recondita f sp. tritici; (the causal agent of wheat leaf rust) and incubated in a saturated atmosphere at 20° C. for 24 h, and then moved to a growth chamber at 20° C. for 6 days, after which time visual disease ratings were made.
A dash (-) indicates no test results. Compounds with an asterisks (*) were applied at a concentration of 50 ppm, otherwise test solutions were applied at 10 ppm.

Zymoseptoria tritici = experiment: Test E: wheat leaf blotch, preventive spray on wheat seedlings; settings: 100 = 100% disease control; for Test E disease control rating: 10 ppm test solution, 0 = no control relative to controls; for Test E rating (% disease control): wheat leaf blotch, 0 = no control
Stagonospora nodorum = experiment: Test D: wheat glume blotch, preventive spray on wheat seedlings; settings: 100 = 100% disease control; for Test D disease control rating: 10 ppm test solution, 0 = no control relative to controls; for Test D rating (% disease control): wheat glume blotch, 0 = no control
[2] = tested on: Erysiphe graminis f sp. tritici; experiment: Test G: wheat powdery mildew, preventive spray on wheat seedlings; settings: 100 = 100% disease control; for Test G disease control rating: 10 ppm test solution, 0 = no control relative to controls; for Test G rating (% disease control): wheat powdery mildew, 0 = no control

## CC(C)(C)C(O)(Cn1cncn1)C1=NOC(COc2cccc(Br)c2)C1 (single isomer, unassigned) [Compound 232]
Botrytis cinerea
  Test B disease control rating: 98%
[1]
  Test F disease control rating: 100%
Zymoseptoria tritici
  Test E disease control rating: 41%
Stagonospora nodorum
  Test D disease control rating: 99%
[2]
  Test G disease control rating: 100%

## OC(Cn1cncn1)(C1=NOC2c3ccccc3CCC12)c1ccc(Cl)cc1 (stereo not drawn) [Compound 223]
Botrytis cinerea
  Test B disease control rating: 0%
[1]
  Test F disease control rating: 100%
Zymoseptoria tritici
  Test E disease control rating: 63%
Stagonospora nodorum
  Test D disease control rating: 0%
[2]
  Test G disease control rating: 99%

## CC(C)(C)C(O)(Cn1cncn1)C1=NOC(CSc2ccc(Cl)cc2)C1 (single isomer, unassigned) [Compound 27]
Botrytis cinerea; 10 ppm
  Test B rating (% disease control): 51%
[1]; 10 ppm
  Test F rating (% disease control): 68%
Zymoseptoria tritici; 10 ppm
  Test E rating (% disease control): 0%
Stagonospora nodorum; 10 ppm
  Test D rating (% disease control): 59%
[2]; 10 ppm
  Test G rating (% disease control): 89%

## OC(Cn1cncn1)(C1=NOC(c2ccc(Cl)cc2)C1)C1CCCCC1 (single isomer, unassigned) [Compound 197]
Botrytis cinerea; 10 ppm
  Test B rating (% disease control): 11%
[1]; 10 ppm
  Test F rating (% disease control): 100%
Zymoseptoria tritici; 10 ppm
  Test E rating (% disease control): 0%
Stagonospora nodorum; 10 ppm
  Test D rating (% disease control): 92%
[2]; 10 ppm
  Test G rating (% disease control): 98%

## OC(Cn1cncn1)(C1=NOC(c2ccc(C(F)(F)F)cc2)C1)c1ccc(Cl)cc1 (single isomer, unassigned) [Compound 146]
Botrytis cinerea; 10 ppm
  Test B rating (% disease control): 0%
[1]; 10 ppm
  Test F rating (% disease control): 100%
Zymoseptoria tritici; 10 ppm
  Test E rating (% disease control): 99%
Stagonospora nodorum; 10 ppm
  Test D rating (% disease control): 100%
[2]; 10 ppm
  Test G rating (% disease control): 99%

## OC(Cn1cncn1)(C1=NOC(CSc2ccccc2)C1)c1ccc(Cl)cc1 (single isomer, unassigned) [Compound 51]
Botrytis cinerea; 10 ppm
  Test B rating (% disease control): 16%
[1]; 10 ppm
  Test F rating (% disease control): 0%
Zymoseptoria tritici; 10 ppm
  Test E rating (% disease control): 1%
Stagonospora nodorum; 10 ppm
  Test D rating (% disease control): 89%
[2]; 10 ppm
  Test G rating (% disease control): 81%

## CC(C)(C)C(O)(Cn1cncn1)C1=NOC(COc2ccc3c(c2)OCO3)C1 (single isomer, unassigned) [Compound 45]
Botrytis cinerea; 10 ppm
  Test B rating (% disease control): 70%
[1]; 10 ppm
  Test F rating (% disease control): 67%
Zymoseptoria tritici; 10 ppm
  Test E rating (% disease control): 0%
Stagonospora nodorum; 10 ppm
  Test D rating (% disease control): 99%
[2]; 10 ppm
  Test G rating (% disease control): 87%

## CC(C)(C)CC(O)(Cn1cncn1)C1=NOC(Cc2ccc(Cl)cc2)C1 (single isomer, unassigned) [Compound 207]
Botrytis cinerea; 10 ppm
  Test B rating (% disease control): 0%
[1]; 10 ppm
  Test F rating (% disease control): 100%
Zymoseptoria tritici; 10 ppm
  Test E rating (% disease control): 44%
Stagonospora nodorum; 10 ppm
  Test D rating (% disease control): 99%
[2]; 10 ppm
  Test G rating (% disease control): 100%

## OC(Cn1cncn1)(C1=NOC(COCc2ccccc2)C1)c1ccc(Cl)cc1 (single isomer, unassigned) [Compound 58]
Botrytis cinerea; 10 ppm
  Test B rating (% disease control): 0%
[1]; 10 ppm
  Test F rating (% disease control): 0%
Zymoseptoria tritici; 10 ppm
  Test E rating (% disease control): 0%
Stagonospora nodorum; 10 ppm
  Test D rating (% disease control): 0%
[2]; 10 ppm
  Test G rating (% disease control): 68%

## CC(C)(C)C(O)(Cn1cncn1)C1=NOC(COc2cccc(Cl)c2)C1 (single isomer, unassigned) [Compound 230]
Botrytis cinerea
  Test B disease control rating: 99%
[1]
  Test F disease control rating: 100%
Zymoseptoria tritici
  Test E disease control rating: 8%
Stagonospora nodorum
  Test D disease control rating: 100%
[2]
  Test G disease control rating: 99%

## CC(C)(C)C(O)(Cn1cncn1)C1=NOC(CSc2ccccc2)C1 (single isomer, unassigned) [Compound 74]
Botrytis cinerea; 10 ppm
  Test B rating (% disease control): 44%
[1]; 10 ppm
  Test F rating (% disease control): 0%
Zymoseptoria tritici; 10 ppm
  Test E rating (% disease control): 13%
Stagonospora nodorum; 10 ppm
  Test D rating (% disease control): 0%
[2]; 10 ppm
  Test G rating (% disease control): 56%

## CS(=O)(=O)c1ccc(C2CC(C(O)(Cn3cncn3)c3ccc(Cl)cc3)=NO2)cc1 (single isomer, unassigned) [Compound 114]
Botrytis cinerea; 10 ppm
  Test B rating (% disease control): 0%
[1]; 10 ppm
  Test F rating (% disease control): 36%
Zymoseptoria tritici; 10 ppm
  Test E rating (% disease control): 39%
Stagonospora nodorum; 10 ppm
  Test D rating (% disease control): 0%
[2]; 10 ppm
  Test G rating (% disease control): 56%

## CSc1ccc(C2CC(C(O)(Cn3cncn3)c3ccc(Cl)cc3)=NO2)cc1 (single isomer, unassigned) [Compound 107]
Botrytis cinerea; 10 ppm
  Test B rating (% disease control): 0%
[1]; 10 ppm
  Test F rating (% disease control): 100%
Zymoseptoria tritici; 10 ppm
  Test E rating (% disease control): 58%
Stagonospora nodorum; 10 ppm
  Test D rating (% disease control): 32%
[2]; 10 ppm
  Test G rating (% disease control): 99%

## OC(Cn1cncn1)(C1=NOC(COc2ccc(Cl)cn2)C1)c1ccc(Cl)cc1 (single isomer, unassigned) [Compound 165]
Botrytis cinerea; 10 ppm
  Test B rating (% disease control): 0%
[1]; 10 ppm
  Test F rating (% disease control): 99%
Zymoseptoria tritici; 10 ppm
  Test E rating (% disease control): 5%
Stagonospora nodorum; 10 ppm
  Test D rating (% disease control): 72%
[2]; 10 ppm
  Test G rating (% disease control): 100%

## CC(C)(C)C(O)(Cn1cncn1)C1=NOC(COc2ccc(-n3cc(Cl)cn3)cc2)C1 (stereo not drawn) [Compound 31]
Botrytis cinerea; 10 ppm
  Test B rating (% disease control): 0%
[1]; 10 ppm
  Test F rating (% disease control): 0%
Zymoseptoria tritici; 10 ppm
  Test E rating (% disease control): 0%
Stagonospora nodorum; 10 ppm
  Test D rating (% disease control): 0%
[2]; 10 ppm
  Test G rating (% disease control): 100%

## OC(Cn1cncn1)(C1=NOC(c2ccc(C(F)(F)F)cc2)C1)c1ccc(C(F)(F)F)cc1 (single isomer, unassigned) [Compound 154]
Botrytis cinerea; 10 ppm
  Test B rating (% disease control): 0%
[1]; 10 ppm
  Test F rating (% disease control): 52%
Zymoseptoria tritici; 10 ppm
  Test E rating (% disease control): 1%
Stagonospora nodorum; 10 ppm
  Test D rating (% disease control): 0%
[2]; 10 ppm
  Test G rating (% disease control): 83%

## CC(C)(C)C(O)(Cn1cncn1)C1=NOC(Cn2cc(Br)cn2)C1 (single isomer, unassigned) [Compound 42]
Botrytis cinerea; 10 ppm
  Test B rating (% disease control): 0%
[1]; 10 ppm
  Test F rating (% disease control): 9%
Zymoseptoria tritici; 10 ppm
  Test E rating (% disease control): 0%
Stagonospora nodorum; 10 ppm
  Test D rating (% disease control): 42%
[2]; 10 ppm
  Test G rating (% disease control): 0%

## CC(C)(C)CC(O)(Cn1cncn1)C1=NOC(Cc2ccc(Cl)cc2)C1 (single isomer, unassigned) [Compound 206]
Botrytis cinerea; 10 ppm
  Test B rating (% disease control): 9%
[1]; 10 ppm
  Test F rating (% disease control): 100%
Zymoseptoria tritici; 10 ppm
  Test E rating (% disease control): 13%
Stagonospora nodorum; 10 ppm
  Test D rating (% disease control): 86%
[2]; 10 ppm
  Test G rating (% disease control): 99%

## CC(C)(C)C(O)(Cn1cncn1)C1=NOC(COc2ccc(Br)cc2)C1 (single isomer, unassigned) [Compound 182]
Botrytis cinerea; 10 ppm
  Test B rating (% disease control): 99%
[1]; 10 ppm
  Test F rating (% disease control): 100%
Zymoseptoria tritici; 10 ppm
  Test E rating (% disease control): 96%
Stagonospora nodorum; 10 ppm
  Test D rating (% disease control): 99%
[2]; 10 ppm
  Test G rating (% disease control): 100%

## OC(Cn1cncn1)(C1=NOC(c2ccc(Br)cc2)C1)c1ccc(Cl)cc1 (single isomer, unassigned) [Compound 179]
Botrytis cinerea; 10 ppm
  Test B rating (% disease control): 0%
[1]; 10 ppm
  Test F rating (% disease control): 100%
Zymoseptoria tritici; 10 ppm
  Test E rating (% disease control): 0%
Stagonospora nodorum; 10 ppm
  Test D rating (% disease control): 0%
[2]; 10 ppm
  Test G rating (% disease control): 91%

## OC(Cn1cncn1)(C1=NOC(c2ccc(Cl)cc2)C1)c1ccccc1F (single isomer, unassigned) [Compound 135]
Botrytis cinerea; 10 ppm
  Test B rating (% disease control): 0%
[1]; 10 ppm
  Test F rating (% disease control): 98%
Zymoseptoria tritici; 10 ppm
  Test E rating (% disease control): 1%
Stagonospora nodorum; 10 ppm
  Test D rating (% disease control): 69%
[2]; 10 ppm
  Test G rating (% disease control): 81%

## CCC(C)(C)C(O)(Cn1cncn1)C1=NOC(COc2ccc(Cl)cc2)C1 (single isomer, unassigned) [Compound 186]
Botrytis cinerea; 10 ppm
  Test B rating (% disease control): 99%
[1]; 10 ppm
  Test F rating (% disease control): 100%
Zymoseptoria tritici; 10 ppm
  Test E rating (% disease control): 66%
Stagonospora nodorum; 10 ppm
  Test D rating (% disease control): 100%
[2]; 10 ppm
  Test G rating (% disease control): 100%

## OC(Cn1cncn1)(C1=NOC(c2ccc(Cl)cc2)C1)c1ccc(Oc2ccccc2)cc1 (single isomer, unassigned) [Compound 128]
Botrytis cinerea; 50 ppm (asterisk)
  Test B rating (% disease control): 0%
[1]; 50 ppm (asterisk)
  Test F rating (% disease control): 100%
Zymoseptoria tritici; 50 ppm (asterisk)
  Test E rating (% disease control): 95%
Stagonospora nodorum; 50 ppm (asterisk)
  Test D rating (% disease control): 100%
[2]; 50 ppm (asterisk)
  Test G rating (% disease control): 99%

## CCCCC(O)(Cn1cncn1)C1=NOC(c2ccc(Cl)cc2)C1 (single isomer, unassigned) [Compound 156]
Botrytis cinerea; 10 ppm
  Test B rating (% disease control): 0%
[1]; 10 ppm
  Test F rating (% disease control): 100%
Zymoseptoria tritici; 10 ppm
  Test E rating (% disease control): 19%
Stagonospora nodorum; 10 ppm
  Test D rating (% disease control): 98%
[2]; 10 ppm
  Test G rating (% disease control): 100%

## CC(C)(C)C(O)(Cn1cncn1)C1=NOC(COc2ccc(OCc3ccccc3)cc2)C1 (single isomer, unassigned) [Compound 71]
Botrytis cinerea; 10 ppm
  Test B rating (% disease control): 0%
[1]; 10 ppm
  Test F rating (% disease control): 26%
Zymoseptoria tritici; 10 ppm
  Test E rating (% disease control): 1%
Stagonospora nodorum; 10 ppm
  Test D rating (% disease control): 0%
[2]; 10 ppm
  Test G rating (% disease control): 94%

## CCC(C)(C)C(O)(Cn1cncn1)C1=NOC(Cc2ccc(C(F)(F)F)cc2)C1 (single isomer, unassigned) [Compound 19]
Botrytis cinerea; 10 ppm
  Test B rating (% disease control): 0%
[1]; 10 ppm
  Test F rating (% disease control): 100%
Zymoseptoria tritici; 10 ppm
  Test E rating (% disease control): 10%
Stagonospora nodorum; 10 ppm
  Test D rating (% disease control): 89%
[2]; 10 ppm
  Test G rating (% disease control): 100%

## CC#CC(O)(Cn1cncn1)C1=NOC(c2ccc(Cl)cc2)C1 (stereo not drawn) [Compound 104, α-[5-(4-chlorophenyl)-4,5-dihydro-3-isoxazolyl]-α-1-propyn-1-yl-1H-1,2,4-triazole-1-ethanol]
Botrytis cinerea; 10 ppm
  Test B rating (% disease control): 0%
[1]; 10 ppm
  Test F rating (% disease control): 97%
Zymoseptoria tritici; 10 ppm
  Test E rating (% disease control): 0%
Stagonospora nodorum; 10 ppm
  Test D rating (% disease control): 100%
[2]; 10 ppm
  Test G rating (% disease control): 93%
